pIC50: −log10 of the molar value.
Legend:
Assay type in all cases: cell-based
[1] = biological target: EP4 subtype of the human PGE2 receptor (Homo sapiens, UniProt P35408); assay: cAMP antagonism test on the human EP4 receptor (HTRF cAMP detection); details: selectivity towards hEP4, IC50 measured by cAMP antagonism test
How it was run: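 Competitive HTRF cAMP read-out (cAMP-d2 vs Eu-cryptate anti-cAMP antibody, 665/620 nm ratio) on lysed human EP4 cells. Compound (0.8 nM–16.5 μM) applied 20 min at RT before 60 min PGE2 challenge (3× solution 0.3 nM, IBMX present); 20 min lysis precedes reading.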

[2] = biological target: EP2 subtype of the human PGE2 receptor (Homo sapiens, UniProt P43116); assay: cAMP antagonism test on the human EP2 receptor (HTRF cAMP detection); details: hEP2 receptor, read-out: Antagonism hEP2 IC50
Chain of EP2 subtype of the human PGE2 receptor (P43116 whole entry): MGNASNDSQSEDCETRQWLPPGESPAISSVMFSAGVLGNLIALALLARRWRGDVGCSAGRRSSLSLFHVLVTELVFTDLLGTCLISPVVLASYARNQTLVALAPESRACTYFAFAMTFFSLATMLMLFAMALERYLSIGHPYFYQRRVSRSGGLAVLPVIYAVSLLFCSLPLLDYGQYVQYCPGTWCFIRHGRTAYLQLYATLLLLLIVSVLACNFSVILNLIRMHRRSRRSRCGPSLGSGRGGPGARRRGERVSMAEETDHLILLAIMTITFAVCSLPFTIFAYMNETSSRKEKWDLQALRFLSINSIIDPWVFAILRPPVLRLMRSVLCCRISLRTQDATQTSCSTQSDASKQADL
How it was run: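 Read-out is a competitive HTRF for cAMP: lysate cAMP displaces cAMP-d2 from Eu cryptate-labelled antibody, and antagonism raises the 665/620 nm ratio. Compound (0.8 nM–16.5 μM) added to EP2 cells 20 min at RT before 60 min PGE2 challenge (3× stock 1.5 nM) with IBMX, followed by 20 min lysis.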

human PGD receptor = biological target: T1, human PGD receptor (Homo sapiens, UniProt Q13258); assay: cAMP antagonism test on the human prostaglandin D receptor (HTRF cAMP detection); details: selectivity towards hDP, IC50 measured by cAMP antagonism test
T1 sequence (Q13258 1-359): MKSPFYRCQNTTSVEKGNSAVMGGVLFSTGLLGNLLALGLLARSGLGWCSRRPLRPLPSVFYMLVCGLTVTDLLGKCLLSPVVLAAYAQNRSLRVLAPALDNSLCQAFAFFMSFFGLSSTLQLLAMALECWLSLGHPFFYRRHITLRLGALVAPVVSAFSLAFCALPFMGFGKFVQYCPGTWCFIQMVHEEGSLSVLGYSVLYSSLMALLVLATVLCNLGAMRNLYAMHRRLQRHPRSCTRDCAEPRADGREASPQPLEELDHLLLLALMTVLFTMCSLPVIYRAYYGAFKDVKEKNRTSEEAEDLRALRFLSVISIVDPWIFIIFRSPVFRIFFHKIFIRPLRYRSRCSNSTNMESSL
How it was run: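 HTRF competition read-out (665/620 nm ratio ×10000), where higher FRET means less cAMP, i.e. antagonism. Compounds (0.8 nM–16.5 μM) were preincubated 20 min at RT with cells and cAMP-d2, PGD2 (3× solution, 6 nM) in IBMX-containing PBS added for 30 min at RT, then cells lysed 20 min.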

Chain of EP4 subtype of the human PGE2 receptor (P35408 whole entry): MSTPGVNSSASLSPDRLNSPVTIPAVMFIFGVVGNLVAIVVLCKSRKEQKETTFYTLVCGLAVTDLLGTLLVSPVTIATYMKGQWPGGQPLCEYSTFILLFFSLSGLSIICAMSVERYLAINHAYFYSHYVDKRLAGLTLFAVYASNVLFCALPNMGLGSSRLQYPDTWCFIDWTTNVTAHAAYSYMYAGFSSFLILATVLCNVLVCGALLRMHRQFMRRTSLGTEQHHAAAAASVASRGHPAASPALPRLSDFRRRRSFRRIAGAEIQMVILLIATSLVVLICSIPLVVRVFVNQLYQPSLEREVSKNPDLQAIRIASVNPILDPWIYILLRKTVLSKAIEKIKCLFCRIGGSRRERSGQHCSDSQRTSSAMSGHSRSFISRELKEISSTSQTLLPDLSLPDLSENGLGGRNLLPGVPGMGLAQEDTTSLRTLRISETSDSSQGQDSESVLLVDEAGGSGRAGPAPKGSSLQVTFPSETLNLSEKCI

SMILES | Selectivity hEP2/hEP4 [1] | pIC50 [2] | Selectivity hEP2/hDP (human PGD receptor)
Cc1c(C(=O)NCCOCC(F)(F)F)ccc2nn(CC3CCN(C(=O)c4ccc(Oc5ccc(F)cc5)cc4)CC3)cc12 [Example 92, 2-({1-[4-(4-fluoro-phenoxy)benzoyl]-piperidin-4-yl}-methyl)-4-methyl-N-[2-(2,2,2-tri-fluoroethoxy)ethyl]-2H-indazol-5-carboxamide] | xxx (xxx > 100) | 7.90 | xxx (xxx > 100)
Cc1c(C(=O)NCCOCC(F)(F)F)ccc2nn(CC3CCN(C(=O)c4ccc(C(F)(F)F)cc4)CC3)cc12 [Example 93, 4-methyl-N-[2-(2,2,2-trifluoro-ethoxy)ethyl]-2-({1-[4-(trifluoro-methyl)benzoyl]-piperidin-4-yl}-methyl)-2H-indazol-5-carboxamide] | xxx (xxx > 100) | 7.94 | xxx (xxx > 100)
Cc1c(C(=O)NCCOCC(F)(F)F)ccc2nn(CC3CCN(C(=O)c4ccc(-c5ccc(F)cc5)cc4)CC3)cc12 [Example 94, 2-({1-[(4′-fluoro-biphenyl-4-yl)-carbonyl]piperidin-4-yl}methyl)-4-methyl-N-[2-(2,2,2-trifluoroethoxy)-ethyl]-2H-indazol-5-carboxamide] | xxx (xxx > 100) | 7.89 | xxx (xxx > 100)
Cc1c(C(=O)NCCOCC(F)(F)F)ccc2nn(CC3CCN(C(=O)c4ccc(C5CC5)cc4)CC3)cc12 [Example 95, 2-{[1-(4-cyclo-propylbenzoyl)-piperidin-4-yl]-methyl}-4-methyl-N-[2-(2,2,2-tri-fluoroethoxy)ethyl]-2H-indazol-5-carboxamide] | xxx (xxx > 100) | 8.21 | xxx (xxx > 100)
Cc1c(C(=O)NCCOC(C)C)ccc2nn(CC3CCN(C(=O)c4ccc(Cl)cc4)CC3)cc12 [Example 96, 2-{[1-(4-chlorobenzoyl)piperidin-4-yl]methyl}-N-(2-isopropoxyethyl)-4-methyl-2H-indazol-5-carboxamide] | xxx (xxx > 100) | 8.03 | xxx (xxx > 100)
Cc1c(C(=O)NCCOC(C)(C)C)ccc2nn(CC3CCN(C(=O)c4ccc(Cl)cc4)CC3)cc12 [Example 111, N-(2-tert-butoxyethyl)-2-{[1-(4-chlorobenzoyl)piperidin-4-yl]methyl}-4-methyl-2H-indazol-5-carboxamide] | xxx (xxx > 100) | 7.86 | xxx (xxx > 100)
Cc1c(C(=O)NCCOC(C)(C)C)ccc2nn(CC3CCN(C(=O)c4ccc(Oc5ccc(F)cc5)cc4)CC3)cc12 [Example 112, N-(2-tert-butoxyethyl)-2-({1-[4-(4-fluoro-phenoxy)benzoyl]-piperidin-4-yl}methyl)-4-methyl-2H-indazol-5-carboxamide] | xxx (xxx > 100) | 7.92 | xxx (xxx > 100)
Cc1c(C(=O)NCCOC(C)(C)C)ccc2nn(CC3CCN(C(=O)c4ccc(-c5ccc(F)cc5)cc4)CC3)cc12 [Example 113, N-(2-tert-butoxyethyl)-2-({1-[(4′-fluoro-biphenyl-4-yl)-carbonyl]piperidin-4-yl}methyl)-4-methyl-2H-indazol-5-carboxamide] | xxx (xxx > 100) | 7.86 | xxx (xxx > 100)
Cc1c(C(=O)NCCOC(C)(C)C)ccc2nn(CC3CCN(C(=O)c4ccc(Oc5ccc(C(F)(F)F)cc5)cc4)CC3)cc12 [Example 114, N-(2-tert-butoxyethyl)-4-methyl-2-[(1-{4-[4-(trifluoromethyl)-phenoxy]benzoyl}-piperidin-4-yl)methyl]-2H-indazol-5-carboxamide] | xxx (xxx > 100) | 8.22 | xxx (xxx > 100)

Further lines, results first:

Selectivity hEP2/hEP4 [1] | pIC50 [2] | Selectivity hEP2/hDP (human PGD receptor) | SMILES
xxx (xxx > 100) | 7.90 | xxx (xxx > 100) | Cc1ccc(C(=O)N2CCC(Cn3cc4c(C)c(C(=O)NCCOC(C)C)ccc4n3)CC2)cc1 [Example 97, N-(2-isopropoxy-ethyl)-4-methyl-2-{[1-(4-methyl-benzoyl)piperidin-4-yl]methyl}-2H-indazol-5-carboxamide]
xxx (xxx > 100) | 8.15 | xxx (xxx > 100) | Cc1c(C(=O)NCCOC(C)C)ccc2nn(CC3CCN(C(=O)c4ccc(Oc5ccc(F)cc5)cc4)CC3)cc12 [Example 98, 2-({1-[4-(4-fluoro-phenoxy)benzoyl]-piperidin-4-yl}-methyl)-N-(2-isopropoxyethyl)-4-methyl-2H-indazol-5-carboxamide]
xxx (xxx > 100) | 7.98 | xxx (xxx > 100) | Cc1c(C(=O)NCCOC(C)C)ccc2nn(CC3CCN(C(=O)c4ccc(C(F)(F)F)cc4)CC3)cc12 [Example 99, N-(2-isopropoxy-ethyl)-4-methyl-2-({1-[4-(trifluoro-methyl)benzoyl]-piperidin-4-yl}-methyl)-2H-indazol-5-carboxamide]
xxx (xxx > 100) | 8.21 | xxx (xxx > 100) | Cc1c(C(=O)NCCOC(C)C)ccc2nn(CC3CCN(C(=O)c4ccc(-c5ccc(F)cc5)cc4)CC3)cc12 [Example 100, 2-({1-[(4′-fluoro-biphenyl-4-yl)-carbonyl]piperidin-4-yl}methyl)-N-(2-isopropoxyethyl)-4-methyl-2H-indazol-5-carboxamide]
xxx (xxx > 100) | 8.18 | xxx (xxx > 100) | Cc1c(C(=O)NCCOC(C)C)ccc2nn(CC3CCN(C(=O)c4ccc(C5CC5)cc4)CC3)cc12 [Example 101, 2-{[1-(4-cyclopropyl-benzoyl)piperidin-4-yl]methyl}-N-(2-isopropoxyethyl)-4-methyl-2H-indazol-5-carboxamide]
xxx (xxx > 100) | 7.94 | xxx (xxx > 100) | Cc1c(C(=O)NCCOC(F)(F)F)ccc2nn(CC3CCN(C(=O)c4ccc(Cl)cc4)CC3)cc12 [Example 107, 2-{[1-(4-chlorobenzoyl)piperidin-4-yl]methyl}-4-methyl-N-[2-(trifluoromethoxy)ethyl]-2H-indazol-5-carboxamide]
xxx (xxx > 100) | 8.19 | xxx (xxx > 100) | Cc1c(C(=O)NCCOC(F)(F)F)ccc2nn(CC3CCN(C(=O)c4ccc(Oc5ccc(F)cc5)cc4)CC3)cc12 [Example 108, 2-({1-[4-(4-fluoro-phenoxy)benzoyl]-piperidin-4-yl}methyl)-4-methyl-N-[2-(tri-fluoromethoxy)ethyl]-2H-indazol-5-carboxamide]
xxx (xxx > 100) | 8.02 | xxx (xxx > 100) | Cc1c(C(=O)NCCOC(F)(F)F)ccc2nn(CC3CCN(C(=O)c4ccc(-c5ccc(F)cc5)cc4)CC3)cc12 [Example 109, 2-({1-[(4′-fluoro-biphenyl-4-yl)-carbonyl]piperidin-4-yl}-methyl)-4-methyl-N-[2-(trifluoro-methoxy)ethyl]-2H-indazol-5-carboxamide]
xxx (xxx > 100) | 8.36 | xxx (xxx > 100) | Cc1c(C(=O)NCCOC(F)(F)F)ccc2nn(CC3CCN(C(=O)c4ccc(Oc5ccc(C(F)(F)F)cc5)cc4)CC3)cc12 [Example 110, 4-methyl-N-[2-(trifluoromethoxy)ethyl]-2-[(1-{4-[4-(trifluoro-methyl)phenoxy]-benzoyl}piperidin-4-yl)-methyl]-2H-indazol-5-carboxamide]
xxx (xxx > 100) | 8.04 | xxx (xxx > 100) | [2H]C([2H])([2H])OC([2H])([2H])C([2H])([2H])NC(=O)c1ccc2nn(CC3CCN(C(=O)c4ccc(Cl)cc4)CC3)cc2c1C [Example 115, 2-{[1-(4-chlorobenzoyl)piperidin-4-yl]methyl}-N-(2-[^2H3]methoxy[^2H4]ethyl)-4-methyl-2H-indazol-5-carboxamide]
xxx (xxx > 100) | 8.26 | xxx (xxx > 100) | [2H]C([2H])([2H])OC([2H])([2H])C([2H])([2H])NC(=O)c1ccc2nn(CC3CCN(C(=O)c4ccc(Oc5ccc(F)cc5)cc4)CC3)cc2c1C [Example 116, 2-({1-[4-(4-fluoro-phenoxy)benzoyl]-piperidin-4-yl}methyl)-4-methyl-N-(2-[^2H3]-methyloxy[^2H4]ethyl)-2H-indazol-5-carboxamide]
